# Assay results as given in PMC4898484 (Molecular microbiology, 2015).
# Molecular target: Plasmodium falciparum phosphatidylserine decarboxylase (PfPSD) (Plasmodium falciparum, UniProt Q9GPP8)
# Experiment: radiometric decarboxylase assay
# Format: biochemical
# Sequence of Plasmodium falciparum phosphatidylserine decarboxylase (PfPSD) (Q9GPP8 41-315): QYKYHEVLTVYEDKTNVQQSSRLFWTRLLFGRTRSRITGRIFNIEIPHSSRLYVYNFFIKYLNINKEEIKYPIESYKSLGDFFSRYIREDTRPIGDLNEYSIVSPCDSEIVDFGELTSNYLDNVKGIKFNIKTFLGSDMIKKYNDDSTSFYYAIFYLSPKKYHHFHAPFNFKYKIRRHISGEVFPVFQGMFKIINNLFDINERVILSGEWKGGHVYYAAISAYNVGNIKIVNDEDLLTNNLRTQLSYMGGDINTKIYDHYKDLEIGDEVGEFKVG
# Sequence of Plasmodium falciparum phosphatidylserine decarboxylase (PfPSD) (Q9GPP8 316-362): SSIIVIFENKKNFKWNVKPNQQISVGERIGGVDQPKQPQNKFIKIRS
smiles,measurement,value
"CCCc1ccc(Nc2ccnc3cc(Cl)ccc23)cc1 [7CPQA, 7-chloro-N-(4-propylphenyl)-4-quinolinamine]",IC50,10 to 100 µM
